Data: publication PMC11204923, “Marine Cytotoxin Santacruzamate A Derivatives as Potent HDAC1-3 Inhibitors and Their Synergistic Anti-Leukemia Effects with Venetoclax” (Marine Drugs, 2024)

Experiments:
[1] = system: MV4-11, THP-1, HL60 and Kasumi-1 cells; test: Cell viability assay, four AML cell lines together; assay type: cell-based; conditions: synthesized SCA
Description: (§1) The AML cell lines MV4-11, THP-1, KASUMI-1 and HL-60 were purchased from Procell Life Science & Technology Co., Ltd. (Wuhan, China). THP-1 and KASUMI-1 were cultured in RPMI-1640 complete medium containing 10% fetal bovine serum and 1% penicillin and streptomycin. MV4-11 was cultured in IMDM complete medium containing 10% fetal bovine serum and 1% penicillin and streptomycin. HL-60 was cultured in IMDM complete medium containing 20% fetal bovine serum and 1% penicillin and streptomycin. All cell lines were cultured in an incubator with humidity set at 95%, temperature at 37 °C and 5% CO2.
(§2) MV4-11, THP-1, KASUMI-1 and HL-60 cells were plated in 96-well transparent plates (10,000 to 15,000 cells/100 μL) and after incubation overnight, cells were treated with gradient-diluted inhibitors with several concentrations. After the cells were incubated with inhibitors for 72 h, 1 mg/mL of Resazurin (Sigma-Aldrich, Saint Louis, MO, USA) was added (working concentration was 0.1 mg/mL). After incubation at 37 °C for about 3 h, the fluorescence intensity of […] was measured at 560 nm/590 nm (excitation/emission) with a Spectra Max i3 Microplate Reader, and the cell viability was determined. The IC50 curve was drawn using GraphPad Prism 9.5 software.

MV4-11 cells [2] = test: Cell viability assay (resazurin), MV4-11; assay type: cell-based; conditions: Homo sapiens, MV4-11, 72 h; read-out: IC50 anti-proliferative activity MV4-11
Description: as §1, §2

HL-60 cells = test: Cell viability assay (resazurin), HL-60; assay type: cell-based; conditions: Homo sapiens, HL-60, 72 h; read-out: IC50 anti-proliferative activity HL-60
Description: as §1, §2

HDAC1 = molecular target: T1, HDAC1 (Homo sapiens, UniProt Q13547); test: In vitro HDAC inhibition fluorescence assay, HDAC1; assay type: biochemical; conditions: for inhibition at 0.01 µM: 10 nM; for inhibition at 0.01 µM / inhibition at 0.1 µM: read-out: Inhibition Rate of HDAC1 (%); for inhibition at 0.1 µM: 100 nM
T1 construct: purchased BPS Bioscience
T1 sequence (Q13547 whole entry): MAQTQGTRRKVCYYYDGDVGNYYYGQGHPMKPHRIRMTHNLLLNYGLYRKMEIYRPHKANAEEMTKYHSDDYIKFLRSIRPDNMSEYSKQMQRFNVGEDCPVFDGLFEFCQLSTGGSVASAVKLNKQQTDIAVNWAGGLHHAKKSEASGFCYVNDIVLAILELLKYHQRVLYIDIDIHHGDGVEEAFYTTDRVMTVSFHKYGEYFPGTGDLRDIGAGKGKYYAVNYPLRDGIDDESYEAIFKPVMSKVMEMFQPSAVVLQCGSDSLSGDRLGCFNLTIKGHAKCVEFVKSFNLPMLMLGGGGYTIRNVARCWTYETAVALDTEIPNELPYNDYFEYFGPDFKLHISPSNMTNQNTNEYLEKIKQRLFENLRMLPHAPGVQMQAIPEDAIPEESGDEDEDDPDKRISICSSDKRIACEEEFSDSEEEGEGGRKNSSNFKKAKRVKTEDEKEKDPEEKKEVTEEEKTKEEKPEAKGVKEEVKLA
Description: (§3) All of the HDAC enzymes were purchased from BPS Bioscience. In vitro HDAC inhibition assays were conducted as previously described. In brief, 20 μL of recombinant HDAC enzyme solution (HDAC1-9, 11) was mixed with various concentrations of the tested compound (20 μL). […] After incubation at 37 °C for 2 h, the catalysis was stopped by the addition of 10 μL of developer containing 30 mg/mL trypsin and 6 μM trichostatin A (TSA). Then, 30 min later, the fluorescence intensity was measured using a microplate reader at excitation and emission wavelengths of 360 and 460 nm, respectively. The inhibition ratios were calculated from the fluorescence intensity readings of tested wells relative to those of control wells, and the IC50 curves and values were determined by GraphPad Prism 6.0, using the “log(inhibitor) vs. normalized response-variable slope” function.

HDAC3 = molecular target: T2, HDAC3 (Homo sapiens, UniProt O15379); test: In vitro HDAC inhibition fluorescence assay, HDAC3; assay type: biochemical; conditions: for inhibition at 0.01 µM: 10 nM; for inhibition at 0.01 µM / inhibition at 0.1 µM: read-out: Inhibition Rate of HDAC3 (%); for inhibition at 0.1 µM: 100 nM
T2 construct: purchased BPS Bioscience
T2 sequence (O15379 whole entry): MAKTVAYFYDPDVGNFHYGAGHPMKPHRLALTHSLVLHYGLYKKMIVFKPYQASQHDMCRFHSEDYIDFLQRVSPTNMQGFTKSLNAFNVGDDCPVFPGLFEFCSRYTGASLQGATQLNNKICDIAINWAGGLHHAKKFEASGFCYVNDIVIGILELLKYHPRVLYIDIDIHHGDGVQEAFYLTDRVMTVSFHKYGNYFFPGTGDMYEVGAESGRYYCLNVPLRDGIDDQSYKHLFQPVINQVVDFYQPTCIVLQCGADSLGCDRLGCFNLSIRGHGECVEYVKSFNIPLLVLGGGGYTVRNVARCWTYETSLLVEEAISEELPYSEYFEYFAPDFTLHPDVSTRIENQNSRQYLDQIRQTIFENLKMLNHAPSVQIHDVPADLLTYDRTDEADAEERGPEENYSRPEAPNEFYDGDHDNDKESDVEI
T2 sequence (Q9Y618 395-489 partner limits assumed): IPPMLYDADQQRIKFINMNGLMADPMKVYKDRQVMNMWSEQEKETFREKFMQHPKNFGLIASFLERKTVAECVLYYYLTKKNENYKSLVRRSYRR
Description: as §3

THP-1 cells = test: Cell viability assay (resazurin), THP-1; assay type: cell-based; conditions: Homo sapiens, THP-1, 72 h; read-out: IC50 anti-proliferative activity THP-1
Description: as §1, §2

Kasumi-1 cells = test: Cell viability assay (resazurin), Kasumi-1; assay type: cell-based; conditions: Homo sapiens, Kasumi 1, 72 h; read-out: IC50 anti-proliferative activity Kasumi-1
Description: as §1, §2

MV4-11 cells [3] = test: Western blot analysis; assay type: cell-based; conditions: Venetoclax monotherapy, 24 h
Description: MV4-11 cells were inoculated into 12-well plates at a density of 800,000 cells/mL. After incubation overnight, each well was treated with different concentrations of 25c and Venetoclax alone or in combination. After treatment for 24 h, the cells were collected and washed with pre-cooled PBS. A protease inhibitor (cocktail) and RIPA buffer were added for cell lysis. The decomposed solution was centrifuged at 12,000 rpm for 15 min at 4 °C, and the extracted protein was located in the supernatant. The proteins in each sample were denatured by heating at 100 °C in loading buffer (5×) for 10 min. The same amount of proteins in each sample was separated by SDS-PAGE and then electrotransferred to a PVDF membrane (Merck Millipore, Billerica, MA, USA) and enclosed in 5% skim milk powder for 1 h. The primary antibody diluted with an immune response booster solution was incubated in a shaking bed at 4 °C overnight, and the horseradish (HRP)-conjugated second antibody diluted with 5% skim milk powder was incubated at room temperature for 1 h on the second day. After the PVDF membrane was washed with TBST, the target protein bands could be detected with chemiluminescent reagents (Millipore, Billerica, MA, USA) and visualized in the Tanon 5200 + fluorescence imager.
The primary antibodies Caspase 3 (including Cleaved Caspase-3) (sc-56053), Mcl-1 (94296S), Bcl-xL (ab98143), γ-H2AX (9718S), AcHH3 (Lys27) (8173S), AcHH4 (sc-377520), HH3 (ab1791), Ac-tubulin (sc-23950), HDAC6 (sc-28386), α-tubulin (sc-23948), GAPDH (sc-59540) and β-actin (8H10D10) were purchased from Abcam, Cell Signaling Technology and Santa Cruz Biotechnology.

MV4-11 cells [4] = test: Microdilution checkerboard assay, 25c combined with Venetoclax; assay type: cell-based; conditions: Homo sapiens, 72 h, read-out: Inhibition Rate (%)
Description: The inhibition effect of 25c combined with Venetoclax on the proliferation of MV4-11 cells was determined by microdilution checkerboard assay. CompuSyn software was used to calculate the combined action index of the two compounds, and the cell inhibition rates of the two compounds acting alone and the combined action were input to calculate the combination index (CI) to evaluate the synergistic effect of the drugs. A CI value less than 1 indicates a synergistic effect, a CI value equal to 1 indicates an additive effect and a CI value greater than 1 indicates an antagonistic effect.

HDAC2 = molecular target: T3, HDAC2 (Homo sapiens, UniProt Q92769); test: In vitro HDAC inhibition fluorescence assay, HDAC2; assay type: biochemical
T3 construct: purchased BPS Bioscience
T3 sequence (Q92769 whole entry): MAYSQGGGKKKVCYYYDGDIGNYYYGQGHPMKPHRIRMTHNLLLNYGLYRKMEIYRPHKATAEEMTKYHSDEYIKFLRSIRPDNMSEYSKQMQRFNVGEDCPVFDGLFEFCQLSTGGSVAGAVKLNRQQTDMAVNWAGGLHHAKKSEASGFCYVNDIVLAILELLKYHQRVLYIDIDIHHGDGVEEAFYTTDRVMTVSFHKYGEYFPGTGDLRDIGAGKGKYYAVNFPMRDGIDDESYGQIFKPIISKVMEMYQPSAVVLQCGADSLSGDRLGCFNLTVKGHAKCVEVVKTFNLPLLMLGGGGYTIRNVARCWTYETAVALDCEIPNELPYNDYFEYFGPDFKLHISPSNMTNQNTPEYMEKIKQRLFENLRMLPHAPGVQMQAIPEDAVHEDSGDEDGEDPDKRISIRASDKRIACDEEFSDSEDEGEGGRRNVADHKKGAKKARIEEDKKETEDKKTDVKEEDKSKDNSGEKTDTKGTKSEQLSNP
Description: as §3

Structure (SMILES)	anti-proliferative inhibitory activity in four AML cell lines [1]	IC50 (MV4-11 cells [2]) [µM]	IC50 (HL-60 cells) [µM]	enzyme inhibitory activity, HDAC1 (HDAC1; screening at 100 nM and 10 nM)	enzyme inhibitory activity, HDAC3 (HDAC3; screening at 100 nM and 10 nM)	IC50 (THP-1 cells) [µM]	IC50 (Kasumi-1 cells) [µM]	level of cleaved-caspase3 (MV4-11 cells [3])	inhibition at 0.04 µM (MV4-11 cells [4]; Venetoclax 0.04 μM alone) [%]	inhibition at 0.08 µM (MV4-11 cells [4]; Venetoclax 0.08 μM alone) [%]	inhibition at 0.15 µM (MV4-11 cells [4]; Venetoclax 0.15 μM alone) [%]	IC50 (HDAC1) [µM]	inhibition at 0.01 µM (HDAC1) [%]	inhibition at 0.1 µM (HDAC1) [%]	IC50 (HDAC3) [µM]	inhibition at 0.01 µM (HDAC3) [%]	inhibition at 0.1 µM (HDAC3) [%]	IC50 (HDAC2) [µM]
CCOC(=O)NCCCC(=O)NCCc1ccccc1 [SCA, Santacruzamate A]	no inhibitory activity was detected	> 10	> 10	no activity	no activity	> 10	> 10											
CC1(C)CCC(CN2CCN(c3ccc(C(=O)NS(=O)(=O)c4ccc(NCC5CCOCC5)c([N+](=O)[O-])c4)c(Oc4cnc5[nH]ccc5c4)c3)CC2)=C(c2ccc(Cl)cc2)C1 [Venetoclax]								slightly higher	36.5	62.3	78.5							
CCCNNC(=O)C=Cc1ccc(CNC2Cc3ccccc3C2)cc1 [Compound 25e, 3-(4-(((2,3-Dihydro-1H-inden-2-yl)amino)methyl)phenyl)-N′-propylacrylohydrazide]		0.353 ± 0.119	0.502 ± 0.189			0.451 ± 0.0738	0.381 ± 0.147					0.0365 ± 0.005	10.9 ± 1.2	78.7 ± 0.7	0.0031 ± 0.0015	94.8 ± 0.5	95.6 ± 0.2	0.161 ± 0.029
Nc1ccccc1NC(=O)c1ccc(CNC(=O)OCc2cccnc2)cc1 [Entinostat, reference compound]		0.651 ± 0.0374	1.1 ± 0.0515			1.52 ± 0.218	0.48 ± 0.161						3.8 ± 1.1	37.6 ± 2.6				
CCCNNC(=O)C=Cc1ccc(CNCc2cccc3ccccc23)cc1 [Compound 25g, 3-(4-(((Naphthalen-1-ylmethyl)amino)methyl)phenyl)-N′-propylacrylohydrazide]		0.582 ± 0.24	0.65 ± 0.247			1.02 ± 0.498	1.01 ± 0.643					0.016 ± 0.001	33.9	76.5 ± 5		45.9	71.1 ± 1.6	0.0463 ± 0.0041
CCCNNC(=O)C=Cc1ccc(CNCc2ccccc2)cc1 [Compound 25b, 3-(4-((Benzylamino)methyl)phenyl)-N′-propylacrylohydrazide]		0.362 ± 0.0768	0.736 ± 0.0248			0.516 ± 0.145	0.448 ± 0.122					0.027 ± 0.002	21.8 ± 1.6	77 ± 0.3	0.0027 ± 0.0006	94.8 ± 0.1	97.9 ± 0.2	0.111 ± 0.0169
